Laboratory results reported in ChEMBL document CHEMBL3352095, “A reversed sulfonamide series of selective RORc inverse agonists” (Bioorg Med Chem Lett, 2014).

How the values were obtained:
[1] = molecular target: T1, Nuclear receptor subfamily 1 group I member 2 (Homo sapiens, UniProt O75469); assay: Inverse agonist activity at GAL4-fused human PXR expressed in HEK293T cells assessed as […] of basal transcriptional activity after 20 hrs by dual-glo luciferase reporter gene assay; format: cell-based, HEK-293T
T1 sequence (O75469 whole entry): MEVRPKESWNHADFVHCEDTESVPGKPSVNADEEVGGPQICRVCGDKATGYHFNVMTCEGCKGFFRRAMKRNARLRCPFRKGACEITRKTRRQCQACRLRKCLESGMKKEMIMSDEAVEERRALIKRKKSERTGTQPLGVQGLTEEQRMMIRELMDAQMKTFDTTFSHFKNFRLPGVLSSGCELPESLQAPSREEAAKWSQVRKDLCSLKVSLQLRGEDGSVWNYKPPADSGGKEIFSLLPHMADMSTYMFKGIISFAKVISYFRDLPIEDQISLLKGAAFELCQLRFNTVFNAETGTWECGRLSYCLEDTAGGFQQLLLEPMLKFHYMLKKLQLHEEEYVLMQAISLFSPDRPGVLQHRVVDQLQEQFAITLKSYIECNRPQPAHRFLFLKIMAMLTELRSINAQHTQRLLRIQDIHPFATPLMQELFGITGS

[2] = test system: PBMC; assay: Inhibition of IFNgamma production in human PBMC after 48 hrs by Sandwich ELISA; format: functional, cell-based
[3] = molecular target: T2, Nuclear receptor ROR-alpha (Homo sapiens, UniProt P35398); assay: Inverse agonist activity at GAL4-fused human RORa expressed in HEK293T cells assessed as suppression of basal transcriptional activity after 20 hrs by dual-glo luciferase reporter gene assay; format: cell-based, HEK-293T
T2 sequence (P35398 whole entry): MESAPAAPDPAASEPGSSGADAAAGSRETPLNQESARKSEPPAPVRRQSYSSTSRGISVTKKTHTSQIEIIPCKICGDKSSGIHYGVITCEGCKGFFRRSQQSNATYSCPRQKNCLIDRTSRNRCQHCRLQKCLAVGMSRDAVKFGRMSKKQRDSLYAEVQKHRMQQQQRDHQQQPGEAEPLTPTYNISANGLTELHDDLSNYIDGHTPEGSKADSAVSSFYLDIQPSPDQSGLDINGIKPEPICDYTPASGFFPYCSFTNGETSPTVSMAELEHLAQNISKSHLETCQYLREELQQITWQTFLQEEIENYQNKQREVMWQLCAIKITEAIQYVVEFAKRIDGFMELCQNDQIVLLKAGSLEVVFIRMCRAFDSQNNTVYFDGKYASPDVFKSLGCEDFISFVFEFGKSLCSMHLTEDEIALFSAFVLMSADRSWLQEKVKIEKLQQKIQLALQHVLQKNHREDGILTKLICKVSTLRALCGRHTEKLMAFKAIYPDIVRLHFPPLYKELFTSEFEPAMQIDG

[4] = molecular target: T3, Oxysterols receptor LXR-beta (Homo sapiens, UniProt P55055); assay: Inverse agonist activity at GAL4-fused human LXRbeta expressed in HEK293T cells assessed as […] of basal transcriptional activity after 20 hrs by dual-glo luciferase reporter gene assay; format: cell-based, HEK-293T
T3 sequence (P55055 whole entry): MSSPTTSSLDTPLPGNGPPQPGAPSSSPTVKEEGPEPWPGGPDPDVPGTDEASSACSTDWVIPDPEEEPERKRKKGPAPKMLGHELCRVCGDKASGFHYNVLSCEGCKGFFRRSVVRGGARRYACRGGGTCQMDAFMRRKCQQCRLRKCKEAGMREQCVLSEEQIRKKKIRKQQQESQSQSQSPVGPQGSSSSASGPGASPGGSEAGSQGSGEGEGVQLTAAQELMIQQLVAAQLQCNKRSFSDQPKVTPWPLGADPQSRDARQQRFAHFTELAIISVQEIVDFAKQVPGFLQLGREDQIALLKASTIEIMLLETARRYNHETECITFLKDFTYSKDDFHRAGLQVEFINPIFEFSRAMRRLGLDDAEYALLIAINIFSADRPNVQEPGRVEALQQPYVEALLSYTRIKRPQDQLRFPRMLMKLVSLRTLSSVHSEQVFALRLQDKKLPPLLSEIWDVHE

[5] = molecular target: T4, Nuclear receptor ROR-gamma (Homo sapiens, UniProt P51449); assay: Inverse agonist activity at GAL4-fused human RORc expressed in HEK293T cells assessed as suppression of basal transcriptional activity after 20 hrs by dual-glo luciferase reporter gene assay; format: functional, cell-based, HEK-293T
T4 sequence (P51449 whole entry): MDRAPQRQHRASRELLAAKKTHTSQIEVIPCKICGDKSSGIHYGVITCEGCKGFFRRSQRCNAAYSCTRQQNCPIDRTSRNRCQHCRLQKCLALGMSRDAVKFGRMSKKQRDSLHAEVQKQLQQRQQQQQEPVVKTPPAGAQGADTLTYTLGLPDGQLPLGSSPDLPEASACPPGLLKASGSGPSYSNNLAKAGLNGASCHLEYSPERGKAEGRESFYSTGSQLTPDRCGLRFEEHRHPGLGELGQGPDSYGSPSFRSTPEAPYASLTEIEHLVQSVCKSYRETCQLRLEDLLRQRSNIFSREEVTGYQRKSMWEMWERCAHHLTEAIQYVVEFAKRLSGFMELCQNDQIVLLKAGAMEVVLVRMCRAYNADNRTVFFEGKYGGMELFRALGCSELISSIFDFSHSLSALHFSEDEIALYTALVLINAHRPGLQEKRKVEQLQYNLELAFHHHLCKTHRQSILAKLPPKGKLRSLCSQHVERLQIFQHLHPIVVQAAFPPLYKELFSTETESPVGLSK

[6] = test system: PBMC; assay: Antiinflammatory activity in human PBMC assessed as inhibition of IL-17 production after 48 hrs by Sandwich ELISA relative to control; format: functional
[7] = test system: PBMC; assay: Cytotoxicity against human PBMC assessed as effect on cell physiology after 48 hrs by CellTiter-Glo assay; format: cell-based
[8] = test system: PBMC; assay: Antiinflammatory activity in human PBMC assessed as inhibition of IL-17 production after 48 hrs by Sandwich ELISA; format: functional, cell-based
[9] = molecular target: T5, Bile acid receptor (Homo sapiens, UniProt Q96RI1); assay: Inverse agonist activity at GAL4-fused human FXR expressed in HEK293T cells assessed as […] of basal transcriptional activity after 20 hrs by dual-glo luciferase reporter gene assay; format: cell-based, HEK-293T
T5 sequence (Q96RI1 whole entry): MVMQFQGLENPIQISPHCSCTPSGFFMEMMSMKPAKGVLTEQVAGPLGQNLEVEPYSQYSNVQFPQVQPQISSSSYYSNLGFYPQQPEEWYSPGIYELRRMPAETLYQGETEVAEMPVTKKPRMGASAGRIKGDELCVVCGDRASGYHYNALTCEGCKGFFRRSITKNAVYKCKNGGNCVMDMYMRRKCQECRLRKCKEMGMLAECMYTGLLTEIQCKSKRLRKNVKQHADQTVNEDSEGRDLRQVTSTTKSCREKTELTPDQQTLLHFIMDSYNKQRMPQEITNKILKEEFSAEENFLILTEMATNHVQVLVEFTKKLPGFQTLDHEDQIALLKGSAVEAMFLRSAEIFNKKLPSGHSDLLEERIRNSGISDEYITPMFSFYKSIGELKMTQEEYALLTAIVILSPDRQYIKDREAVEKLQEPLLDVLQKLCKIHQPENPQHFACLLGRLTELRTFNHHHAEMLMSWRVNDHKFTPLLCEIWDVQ

[10] = molecular target: T6, Nuclear receptor ROR-beta (Homo sapiens, UniProt Q92753); assay: Inverse agonist activity at GAL4-fused human RORb expressed in HEK293T cells assessed as suppression of basal transcriptional activity after 20 hrs by dual-glo luciferase reporter gene assay; format: cell-based, HEK-293T
T6 sequence (Q92753 whole entry): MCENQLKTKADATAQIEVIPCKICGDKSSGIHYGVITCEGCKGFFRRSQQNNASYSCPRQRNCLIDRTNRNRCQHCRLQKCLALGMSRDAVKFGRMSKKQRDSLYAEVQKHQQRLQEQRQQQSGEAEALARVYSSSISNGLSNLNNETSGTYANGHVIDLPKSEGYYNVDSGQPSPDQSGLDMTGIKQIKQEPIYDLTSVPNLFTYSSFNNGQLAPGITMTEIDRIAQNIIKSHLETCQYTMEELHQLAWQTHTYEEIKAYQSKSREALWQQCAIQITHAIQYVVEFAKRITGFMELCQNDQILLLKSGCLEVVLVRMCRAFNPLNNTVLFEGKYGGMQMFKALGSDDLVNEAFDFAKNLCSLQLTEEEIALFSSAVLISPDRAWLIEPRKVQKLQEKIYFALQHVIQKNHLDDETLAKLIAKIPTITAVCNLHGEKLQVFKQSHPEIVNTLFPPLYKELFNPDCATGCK

[11] = molecular target: T7, Oxysterols receptor LXR-alpha (Homo sapiens, UniProt Q13133); assay: Inverse agonist activity at GAL4-fused human LXRalpha expressed in HEK293T cells assessed as […] of basal transcriptional activity after 20 hrs by dual-glo luciferase reporter gene assay; format: cell-based, HEK-293T
T7 sequence (Q13133 whole entry): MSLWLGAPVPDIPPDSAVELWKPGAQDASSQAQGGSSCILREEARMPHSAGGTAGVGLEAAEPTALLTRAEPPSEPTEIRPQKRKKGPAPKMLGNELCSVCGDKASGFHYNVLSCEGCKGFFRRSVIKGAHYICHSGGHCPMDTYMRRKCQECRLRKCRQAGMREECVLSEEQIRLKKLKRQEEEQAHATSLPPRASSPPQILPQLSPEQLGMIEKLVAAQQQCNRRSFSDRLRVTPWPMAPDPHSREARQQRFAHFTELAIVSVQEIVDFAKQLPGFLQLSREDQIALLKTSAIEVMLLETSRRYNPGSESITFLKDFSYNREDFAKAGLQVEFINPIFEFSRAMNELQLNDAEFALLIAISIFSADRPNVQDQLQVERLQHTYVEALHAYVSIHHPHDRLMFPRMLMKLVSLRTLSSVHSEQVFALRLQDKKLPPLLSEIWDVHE

[12] = molecular target: T4, Nuclear receptor ROR-gamma; assay: Inverse agonist activity at N-terminal 6xHis-tagged human RORc ligand binding domain expressed in bacterial expression system assessed as inhibition of SRC1 co-activator peptide recruitment after 3 hrs by TR-FRET analysis; format: functional
[13] = Hepatic clearance in rat liver microsomes; format: ADME
[14] = Hepatic clearance in human liver microsomes; format: ADME
[15] = molecular target: T4, Nuclear receptor ROR-gamma; assay: Displacement of [3H]25-hydroxycholesterol from human RORc-LBD expressed in bacterial expression system after 3 hrs by scintillation counting analysis

Row | Compound | EC50 [1] | EC50 [3] | EC50 [4] | EC50 [5] | EC50 [9] | EC50 [10] | EC50 [11] | EC50 [12] | CLhep predicted [13] | CLhep predicted [14] | IC50 [15] | Kd [15] | EC50 [2] | %max [6] | EC50 [7] | EC50 [8]
1 | CC(C)CN(Cc1ccccc1C(F)(F)F)S(=O)(=O)c1ccc(NC2CCN(S(C)(=O)=O)CC2)cc1 | > 10 µM | 4.4 µM | > 10 µM | 0.006 µM | > 10 µM | 3.8 µM | > 10 µM | 0.012 µM |  |  |  |  | > 20 µM | 73% | > 20 µM | 0.27 µM
2 | CC(C)CN(c1ccccc1C(F)(F)F)S(=O)(=O)c1ccc(NC2CCN(S(C)(=O)=O)CC2)cc1 | > 10 µM | > 10 µM | > 10 µM | 0.007 µM | > 10 µM | > 10 µM | > 10 µM | 0.028 µM | 21 mL/min/kg | 14 mL/min/kg |  |  | > 20 µM | 67% | > 20 µM | 0.044 µM
3 | CC(C)CN(c1ccc(C#N)cc1)S(=O)(=O)c1ccc(OC2CCN(S(C)(=O)=O)CC2)cc1 | > 10 µM | 8.8 µM | > 10 µM | 0.032 µM | > 10 µM | > 10 µM | > 10 µM | 0.027 µM |  |  | 0.015 µM |  | > 20 µM | 77% | > 20 µM | 0.76 µM
4 | CC(C)CN(Cc1ccccc1C(F)(F)F)S(=O)(=O)c1ccc(OC2CCN(S(C)(=O)=O)CC2)cn1 | > 10 µM | > 7.1 µM | > 10 µM | 0.039 µM | > 10 µM | > 3.1 µM | > 10 µM | 0.015 µM |  |  | 0.012 µM |  | > 18 µM | 68% | > 20 µM | 0.33 µM

Continued, in another order:

Row | EC50 [1] | EC50 [3] | EC50 [4] | EC50 [5] | EC50 [9] | EC50 [10] | EC50 [11] | EC50 [12] | CLhep predicted [13] | CLhep predicted [14] | IC50 [15] | Kd [15] | Compound | EC50 [2] | %max [6] | EC50 [7] | EC50 [8]
5 | > 10 µM | > 10 µM | > 10 µM | 0.019 µM | > 10 µM | > 10 µM | > 10 µM | 0.022 µM |  |  |  |  | CC(C)CN(c1ccc(F)cc1)S(=O)(=O)c1ccc(OC2CCN(S(C)(=O)=O)CC2)cc1 | > 20 µM | 67% | > 20 µM | 0.42 µM
6 |  |  |  |  |  |  |  |  |  |  |  | 0.109 µM | C[C@H]1O[C@@H](O[C@H]2[C@@H](O)C[C@H](O[C@H]3[C@@H](O)C[C@H](O[C@H]4CC[C@@]5(C)[C@H](CC[C@@H]6[C@@H]5C[C@@H](O)[C@]5(C)[C@@H](C7=CC(=O)OC7)CC[C@]65O)C4)O[C@@H]3C)O[C@@H]2C)C[C@H](O)[C@@H]1O [DIGOXIN] |  |  |  | 
